Test results from paper PMC9321722, “Tailored Pyridoxal Probes Unravel Novel Cofactor‐Dependent Targets and Antibiotic Hits in Critical Bacterial Pathogens” (Angewandte Chemie (International Ed. in English), 2022).

Columns and labels:
PA2683 [1] = target: T1, PA2683 (Pseudomonas aeruginosa, UniProt Q9I0F5); assay: coupled NADH assay and LC-MS/MS of products; type: biochemical
T1 sequence (Q9I0F5 1-320): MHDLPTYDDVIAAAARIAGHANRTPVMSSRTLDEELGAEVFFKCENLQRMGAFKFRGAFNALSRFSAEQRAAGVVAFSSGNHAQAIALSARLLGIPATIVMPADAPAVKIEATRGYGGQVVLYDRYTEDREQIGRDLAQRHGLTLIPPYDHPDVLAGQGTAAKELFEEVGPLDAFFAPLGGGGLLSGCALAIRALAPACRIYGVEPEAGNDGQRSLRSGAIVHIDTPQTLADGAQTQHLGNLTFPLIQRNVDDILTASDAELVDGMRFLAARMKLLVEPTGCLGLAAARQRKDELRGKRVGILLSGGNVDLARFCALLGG

pdxK = target: T2, pdxK (Escherichia coli, UniProt P40191); assay: UV/Vis phosphorylation assay; type: biochemical
T2 construct: pyridoxal kinase used in UV/Vis phosphorylation assay
T2 sequence (P40191 whole entry): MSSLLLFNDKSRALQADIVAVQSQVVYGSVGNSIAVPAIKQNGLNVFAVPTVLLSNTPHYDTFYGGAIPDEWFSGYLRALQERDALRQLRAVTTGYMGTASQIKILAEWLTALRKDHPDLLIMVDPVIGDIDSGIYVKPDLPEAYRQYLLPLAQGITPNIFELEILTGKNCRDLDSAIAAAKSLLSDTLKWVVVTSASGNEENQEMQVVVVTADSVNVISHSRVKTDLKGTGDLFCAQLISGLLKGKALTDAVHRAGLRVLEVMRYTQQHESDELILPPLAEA

SaPLK = target: T3, SaPLK (Staphylococcus aureus, UniProt Q5HI96); assay: UV/Vis phosphorylation assay; type: biochemical
T3 construct: gene pdxK; pyridoxal kinase used in UV/Vis phosphorylation assay
T3 sequence (Q5HI96 1-276): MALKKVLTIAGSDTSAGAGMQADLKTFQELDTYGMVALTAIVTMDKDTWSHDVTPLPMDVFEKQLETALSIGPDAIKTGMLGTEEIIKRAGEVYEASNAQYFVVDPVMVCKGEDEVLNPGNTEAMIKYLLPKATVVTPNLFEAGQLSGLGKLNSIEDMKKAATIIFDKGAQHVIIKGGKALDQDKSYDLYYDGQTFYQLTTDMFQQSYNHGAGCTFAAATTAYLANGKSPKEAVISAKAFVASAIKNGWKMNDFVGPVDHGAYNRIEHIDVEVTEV

PA2683 [2] = target: T1, PA2683; assay: acceleration of serine/threonine dehydratase activity of overexpressed enzyme; type: biochemical
[3] = target: T4, A0A0H2XHJ5 (cysteine desulfurase, sufS) (Staphylococcus aureus, UniProt A0A0H2XHJ5); assay: LC-MS quantification of alanine formed from L-Cys by overexpressed enzyme; type: biochemical
T4 construct: with sufU
T4 sequence (A0A0H2XHJ5 entry or part of it): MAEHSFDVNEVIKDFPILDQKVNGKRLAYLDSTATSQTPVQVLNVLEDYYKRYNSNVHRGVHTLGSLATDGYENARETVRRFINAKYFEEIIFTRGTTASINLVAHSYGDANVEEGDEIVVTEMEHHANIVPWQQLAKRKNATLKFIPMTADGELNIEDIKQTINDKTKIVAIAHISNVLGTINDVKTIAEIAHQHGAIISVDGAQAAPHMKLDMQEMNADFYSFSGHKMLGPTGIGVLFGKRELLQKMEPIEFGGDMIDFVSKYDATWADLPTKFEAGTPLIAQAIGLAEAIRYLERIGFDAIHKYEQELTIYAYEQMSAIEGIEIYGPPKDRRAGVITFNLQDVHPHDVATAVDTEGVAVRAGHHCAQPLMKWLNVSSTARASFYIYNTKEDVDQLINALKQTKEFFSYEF
T4 sequence (A0A0H2XJC0 entry or part of it, further chain): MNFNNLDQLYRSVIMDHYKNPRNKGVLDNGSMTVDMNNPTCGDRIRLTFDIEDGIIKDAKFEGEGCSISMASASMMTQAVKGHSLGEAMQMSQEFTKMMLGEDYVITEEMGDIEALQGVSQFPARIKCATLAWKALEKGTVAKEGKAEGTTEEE

[4] = target: T5, Orn/Lys/Arg decarboxylase (A0A0H2XII6) (Staphylococcus aureus, UniProt A0A0H2XII6); assay: LC-MS/MS quantification of cadaverine formed by overexpressed enzyme; also competitive PL2 profiling in cells; type: biochemical
T5 construct: gene SAUSA300_0458
T5 sequence (A0A0H2XII6 entry or part of it): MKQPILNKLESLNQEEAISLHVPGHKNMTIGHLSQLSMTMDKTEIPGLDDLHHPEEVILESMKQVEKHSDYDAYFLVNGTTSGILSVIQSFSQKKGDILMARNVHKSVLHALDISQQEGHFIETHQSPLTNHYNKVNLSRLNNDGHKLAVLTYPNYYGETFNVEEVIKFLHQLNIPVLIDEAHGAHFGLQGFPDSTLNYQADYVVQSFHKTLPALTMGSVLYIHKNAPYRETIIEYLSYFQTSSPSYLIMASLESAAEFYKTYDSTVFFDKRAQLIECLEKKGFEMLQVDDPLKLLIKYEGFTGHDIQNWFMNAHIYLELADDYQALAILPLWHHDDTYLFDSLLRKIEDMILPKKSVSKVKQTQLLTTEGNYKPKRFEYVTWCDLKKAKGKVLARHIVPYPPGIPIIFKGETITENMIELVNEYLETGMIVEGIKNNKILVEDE

PA2683 [5] = target: T1, PA2683; assay: intact protein MS of overexpressed protein; type: binding
ydcR = ydcR (Escherichia coli, UniProt P77730); assay: intact protein MS of overexpressed protein; type: binding
ydcR, sequence (P77730 whole entry): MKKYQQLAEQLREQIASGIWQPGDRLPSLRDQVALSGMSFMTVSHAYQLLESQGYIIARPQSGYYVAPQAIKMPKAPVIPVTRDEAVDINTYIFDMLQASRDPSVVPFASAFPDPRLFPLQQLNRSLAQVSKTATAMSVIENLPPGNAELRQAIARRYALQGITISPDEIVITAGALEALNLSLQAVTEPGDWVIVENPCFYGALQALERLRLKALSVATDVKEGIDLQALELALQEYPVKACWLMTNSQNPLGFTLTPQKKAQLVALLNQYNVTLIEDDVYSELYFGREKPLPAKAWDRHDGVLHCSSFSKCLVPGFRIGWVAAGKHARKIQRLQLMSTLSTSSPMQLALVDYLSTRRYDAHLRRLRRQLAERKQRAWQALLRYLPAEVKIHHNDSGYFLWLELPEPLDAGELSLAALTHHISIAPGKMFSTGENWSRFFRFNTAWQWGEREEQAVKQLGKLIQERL

[6] = target: T6, PA3798 (aminotransferase) (Pseudomonas aeruginosa, UniProt Q9HXJ9); assay: intact protein MS; UV/Vis of holo-enzyme; type: binding
T6 sequence (Q9HXJ9 1-382): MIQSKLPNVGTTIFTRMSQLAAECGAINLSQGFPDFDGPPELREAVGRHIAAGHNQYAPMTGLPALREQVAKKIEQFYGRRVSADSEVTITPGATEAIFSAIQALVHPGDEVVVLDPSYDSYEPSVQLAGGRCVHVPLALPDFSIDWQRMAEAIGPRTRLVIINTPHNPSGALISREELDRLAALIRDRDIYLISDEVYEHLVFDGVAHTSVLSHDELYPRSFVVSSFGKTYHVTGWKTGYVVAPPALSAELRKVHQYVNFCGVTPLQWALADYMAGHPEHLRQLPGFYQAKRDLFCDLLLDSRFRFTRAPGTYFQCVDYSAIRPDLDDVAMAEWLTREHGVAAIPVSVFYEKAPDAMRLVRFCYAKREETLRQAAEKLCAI

[7] = target: T7, PA3659 (aminotransferase) (Pseudomonas aeruginosa, UniProt Q9HXY0); assay: intact protein MS; UV/Vis of holo-enzyme; type: binding
T7 sequence (Q9HXY0 1-402): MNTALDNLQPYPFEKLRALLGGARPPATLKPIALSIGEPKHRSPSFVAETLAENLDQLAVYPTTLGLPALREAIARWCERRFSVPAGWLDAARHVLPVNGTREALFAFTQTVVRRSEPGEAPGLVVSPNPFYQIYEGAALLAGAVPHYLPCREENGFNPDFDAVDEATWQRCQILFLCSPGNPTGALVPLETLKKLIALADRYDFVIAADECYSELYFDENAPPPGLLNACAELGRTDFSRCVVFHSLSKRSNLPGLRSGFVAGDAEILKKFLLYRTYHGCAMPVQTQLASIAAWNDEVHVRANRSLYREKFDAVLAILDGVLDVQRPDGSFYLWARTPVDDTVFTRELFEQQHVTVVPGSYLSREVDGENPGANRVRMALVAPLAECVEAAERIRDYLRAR

## N[C@@H](CO)C(=O)O [L-serine]
PA2683 [1]
  coupled NADH assay and LC-MS/MS of products: The enzyme was overexpressed and indeed turnover of L‐serine was observed together with NADH consumption within a coupled assay

## C#CCCc1ncc(CO)c(C=O)c1O [PL2]
pdxK
  UV/Vis phosphorylation assay: we observed phosphorylation of all probes except for PL11 and PL12

## C#Cc1nc(C)c(O)c(C=O)c1CO [PL10]
pdxK
  UV/Vis phosphorylation assay: we observed phosphorylation of all probes except for PL11 and PL12
SaPLK
  UV/Vis phosphorylation assay: we observed phosphorylation of all probes except for PL11 and PL12

## Nc1ncnc2c1ncn2[C@@H]1O[C@H](COP(=O)(O)O)[C@@H](O)[C@H]1O [adenosine monophosphate]
PA2683 [2]
  acceleration of serine/threonine dehydratase activity of overexpressed enzyme: the catalysis was accelerated by adding adenosine monophosphate (AMP) and magnesium

## NNCCc1ccccc1 [phenelzine]
[3]
  IC50: 14.7 ± 1.22 µM
[4]
  IC50: 53.1 ± 1.05 µM

## Cc1ncc(COP(=O)(O)O)c(C=O)c1O [pyridoxal phosphate]
PA2683 [5]
  intact protein MS of overexpressed protein: PLP binding of all overexpressed enzymes was confirmed via intact protein MS (IP‐MS, Figure 4A)
ydcR
  intact protein MS of overexpressed protein: PLP binding of all overexpressed enzymes was confirmed via intact protein MS (IP‐MS, Figure 4A)
[6]
  intact protein MS; UV/Vis of holo-enzyme: PLP binding of all overexpressed enzymes was confirmed via intact protein MS (IP‐MS, Figure 4A)
[7]
  intact protein MS; UV/Vis of holo-enzyme: PLP binding of all overexpressed enzymes was confirmed via intact protein MS (IP‐MS, Figure 4A)
